Data taken from US6844353B2, “Fungicidal properties of sampangine and its analogs to agriculturally important fungal plant pathogens” (The United States of America as represented by the …, priority 2003, dated 2005).
Where two headings read alike, the source gives them in different places.

Experiments:
C. acutatum = assay: 96-well microtiter plate assay, fungal growth inhibition; assay type: cell-based, Colletotrichum acutatum; conditions: Colletotrichum acutatum, C. acutatum, read-out: Percent inhibition−Percent Stimulation±SEM
[1] = tested on: C. fragariae isolate CF-75; assay: Detached strawberry leaf assay; assay type: in vivo, Colletotrichum fragariae; conditions: detached strawberry leaves (cultivar Chandler), five days after application
Description: Strawberry plants of the cultivar Chandler were maintained in a warm greenhouse under conditions suitable for optimum vegetative growth. The youngest fully expanded leaf with the entire petiole from each plant was collected. The petiole of each leaf was inserted into a small test tube (10×4 mm) and filled with sterile distilled water. The left leaflet of each leaf was inoculated with C. fragariae isolate CF-75 (1.5×10^6 conidia/ml) using a hand pump sprayer. The inoculated leaves were placed in a dew chamber and incubated overnight at 30° C. and 100% relative humidity, removed from the dew chamber and allowed to dry. The test compound was applied using a chromatography sprayer until the upper surface of each leaflet was coated. After allowing the leaves to air dry for 2 hours, the right leaflet of each leaf was inoculated with C. fragariae isolate CF-75. The leaves were incubated in the dew chamber at 30° C. and 100% relative humidity for 48 hours. The leaves were then removed from the dew chamber and held in a moist chamber for 3 days (total of five days since test compounds were applied). The number of lesions on each leaflet were then counted.

B. cinerea = assay: 96-well microtiter plate assay, fungal growth inhibition; assay type: cell-based, Botrytis cinerea; conditions: Botrytis cinerea, B. cinerea, read-out: Percent inhibition−Percent Stimulation±SEM
F. oxysporum = assay: as above; assay type: cell-based, Fusarium oxysporum; conditions: Fusarium oxysporum, F. oxysporum, read-out: Percent inhibition−Percent Stimulation±SEM
In short: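 First, conidia from 7-10 day-old cultures were filtered and set photometrically to 1.0×10^6 conidia/mL. Next, wells received compound at final 0.3, 3.0 or 30.0 μM and incubated at 24±1° C. with 12 hour photoperiod. Finally, mean absorbance at 620 nm after 46 and 72 hours gave growth.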

C. gloeosporioides = assay: as above; assay type: cell-based, Colletotrichum gloeosporioides; conditions: Colletotrichum gloeosporioides, C. gloeosporioides, read-out: Percent inhibition−Percent Stimulation±SEM
C. fragariae = assay: as above; assay type: cell-based, Colletotrichum fragariae; conditions: Colletotrichum fragariae, C. fragariae, read-out: Percent inhibition−Percent Stimulation±SEM

O=C1c2ccccc2-c2nccc3ccnc1c23 [Sampangine] showed an inhibition at 0.3 µM (C. acutatum; 48 hrs) of 13.6 ± 5.8%, an inhibition at 0.3 µM (C. acutatum; 72 hrs) of 6 ± 5.1% and an inhibition at 3 µM (C. acutatum; 48 hrs) of 96.8 ± 0.5%. The inhibition at 3 µM (C. acutatum; 72 hrs) was -6.2 ± 3.8%, the inhibition at 30 µM (C. acutatum; 48 hrs) was 100 ± 0.6% and the inhibition at 30 µM (C. acutatum; 72 hrs) was 100 ± 0.2%. For the same compound, the “Disease severity scores (# disease lesions)” value (from here on “Disease severity scores”) ([1]; Concentration 625 (unit not given)) was 8.31, the “Disease severity scores” value ([1]; Concentration 1250 (unit not given)) was 1.26 and the “Disease severity scores” value ([1]; Concentration 2500 (unit not given)) was 0.80. The inhibition at 0.3 µM (B. cinerea; 48 hrs) was 27.2 ± 18.6%, the inhibition at 0.3 µM (B. cinerea; 72 hrs) was 37 ± 21.8% and the inhibition at 3 µM (B. cinerea; 48 hrs) was 29.7 ± 24.8%. The inhibition at 3 µM (B. cinerea; 72 hrs) was 40.1 ± 20.6%, the inhibition at 30 µM (B. cinerea; 48 hrs) was 36.9 ± 26.7% and the inhibition at 30 µM (B. cinerea; 72 hrs) was 47.5 ± 27.1%. For the same compound, the inhibition at 0.3 µM (F. oxysporum; 48 hrs) was 14.7 ± 4.4%, the inhibition at 0.3 µM (F. oxysporum; 72 hrs) was 4.9 ± 2.3% and the inhibition at 3 µM (F. oxysporum; 48 hrs) was 86.6 ± 2.8%. It also gave an inhibition at 3 µM (F. oxysporum; 72 hrs) of 42.9 ± 3.1%, an inhibition at 30 µM (F. oxysporum; 48 hrs) of 100 ± 0.4% and an inhibition at 30 µM (F. oxysporum; 72 hrs) of 100 ± 0.4%. For the same compound, the inhibition at 0.3 µM (C. gloeosporioides; 48 hrs) was 63.8 ± 8.6%, the inhibition at 0.3 µM (C. gloeosporioides; 72 hrs) was 32.9 ± 8.3% and the inhibition at 3 µM (C. gloeosporioides; 48 hrs) was 98.3 ± 0.6%. It also gave an inhibition at 3 µM (C. gloeosporioides; 72 hrs) of 98.8 ± 0.4%, an inhibition at 30 µM (C. gloeosporioides; 48 hrs) of 99.2 ± 0.8% and an inhibition at 30 µM (C. gloeosporioides; 72 hrs) of 99.7 ± 0.4%. For the same compound, the inhibition at 0.3 µM (C. fragariae; 48 hrs) was 55.7 ± 4.5%, the inhibition at 0.3 µM (C. fragariae; 72 hrs) was 32.6 ± 5% and the inhibition at 3 µM (C. fragariae; 48 hrs) was 96.9 ± 0.8%. It also gave an inhibition at 3 µM (C. fragariae; 72 hrs) of 96.8 ± 0.4%, an inhibition at 30 µM (C. fragariae; 48 hrs) of 99.6 ± 0.9% and an inhibition at 30 µM (C. fragariae; 72 hrs) of 100 ± 0.4%.
